# Experimental data from patent US20230159538A1, “PYRROLIDINE-PYRAZOLES AS PYRUVATE KINASE ACTIVATORS” (Global Blood Therapeutics, Inc., priority 2020, published 2023).
# Molecular target: T1, Human pyruvate kinase R (PKR) (Homo sapiens, UniProt P30613)
# T1 construct: Human pyruvate kinase R (PKR), residues 14-574; 6x-His (N, cleaved yes); 8x-Arg (N, cleaved yes); SUMO (N, cleaved yes); host or cells: E. coli
# Assay: Biochemical assay for activation of pyruvate kinase R (Kinase-Glo luminescence, ATP generation)
# Details: for AC50: 0.1 nM PKR, 2 mM FBP, 0.3 mM ADP, 0.1 mM PEP; for PKR % activation: maximal activation level relative to the activation level achieved by AG-348 @ 10 μM
# Protocol: Proteins were translated as fusions with 6×-His, 8×-Arg, and SUMO at the N-terminus. […] All proteins were cloned, expressed in E. coli, and purified using similar protocols. Cells were grown at 30° C. in Luria-Bertani broth supplemented with 0.4% glucose to OD600=0.8 and induced with 0.4 mM IPTG at 16° C. for 18 hours. Cells were harvested by centrifugation, resuspended in 50 mM potassium phosphate pH 8.0, 500 mM NaCl, 25 mM imidazole pH 8.0, and 3 mM β-mercaptoethanol. Cells were lysed using a LM20 microfluidizer from Microfluidics (Westwood, Mass.). The crude lysate was immediately supplemented with 0.2 mM phenylmethylsulfonyl fluoride (PMSF) and centrifuged at 20,000 g for 20 minutes. The soluble fraction was subsequently incubated with 2 mL Ni-NTA (GE Healthcare) per 1,000 ODs for 1 hour at 4° C. Following incubation with the Ni-NTA resin, lysate was removed by pelleting resin at 2,500 g for 3 minutes and washed 3 times with 9 bed volumes of 50 mM potassium phosphate pH 8.0, 500 mM NaCl, 25 mM imidazole, and 3 mM β-mercaptoethanol. Following the batch wash Ni-NTA resin was loaded onto a gravity column and His-tagged protein was eluted with 6 bed volumes of 10 mM Tris/HCl pH 8.0, 200 mM NaCl, 500 mM imidazole, and 3 mM β-mercaptoethanol. Eluted protein was dialyzed overnight against 10 mM Tris/HCl pH 8.0, 200 mM NaCl, and 1 mM DTT and the 6×-His-8×-Arg-SUMO-tag was cleaved using a 20:1 molar ratio of protein:3C protease. The protein was purified by anion exchange chromatography on a HiTrapQ or MonoQ 10/100 GL column (GE Healthcare) via a linear NaCl gradient and twice by size exclusion chromatography using a Superdex S200 26/60 column (GE Healthcare) run in 10 mM Tris/HCl pH 8.0, 200 mM NaCl, 10 mM MgCl2, 1 mM DTT. Proteins were concentrated to ˜12 mg/mL for crystallization and flash frozen for storage.
# Biochemical Assay for Activation of Pyruvate Kinase R
# Activation of pyruvate kinase R (PKR) and pyruvate kinase M2 (PKM2) were measured using a luminescence based measurement of ATP generation and the Kinase-Glo luminescent kinase reagent kit.
# T1 sequence (P30613 14-574): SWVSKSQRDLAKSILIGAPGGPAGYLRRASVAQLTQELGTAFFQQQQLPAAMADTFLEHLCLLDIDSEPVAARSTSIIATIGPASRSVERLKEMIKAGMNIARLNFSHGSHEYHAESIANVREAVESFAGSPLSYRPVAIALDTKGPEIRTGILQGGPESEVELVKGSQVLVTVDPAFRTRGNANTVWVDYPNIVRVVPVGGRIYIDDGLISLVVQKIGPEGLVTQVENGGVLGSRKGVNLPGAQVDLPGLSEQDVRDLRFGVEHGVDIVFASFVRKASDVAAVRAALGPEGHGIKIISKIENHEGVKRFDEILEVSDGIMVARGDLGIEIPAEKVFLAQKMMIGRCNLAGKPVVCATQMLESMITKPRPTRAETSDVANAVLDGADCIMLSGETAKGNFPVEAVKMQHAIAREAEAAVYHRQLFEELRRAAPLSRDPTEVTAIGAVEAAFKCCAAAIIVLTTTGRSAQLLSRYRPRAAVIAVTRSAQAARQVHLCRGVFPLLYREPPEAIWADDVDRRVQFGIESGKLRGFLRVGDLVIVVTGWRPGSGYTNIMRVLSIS
Compound,AC50 [nM],PKR % activation [%]
"COC(C(=O)N1Cc2cn(S(=O)(=O)c3ccc(OC(F)F)cc3)nc2C1)c1ccccc1F (racemic) [Compound 98, 1-{2-[4-(difluoromethoxy)benzenesulfonyl]-2H,4H,5H,6H-pyrrolo[3,4-c]pyrazol-5-yl}-2-(2-fluorophenyl)-2-methoxyethan-1-one]",210,–
"O=C([C@@H](CO)c1ccccc1)N1Cc2cn(S(=O)(=O)c3ccc(OC(F)F)cc3)nc2C1 (single isomer, unassigned) [Compound 8, (2R)-1-{2-[4-(difluoromethoxy)benzenesulfonyl]-2H,4H,5H,6H-pyrrolo[3,4-c]pyrazol-5-yl}-3-hydroxy-2-phenylpropan-1-one, or (2S)-1-{2-[4-(difluoromethoxy)benzenesulfonyl]-2H,4H,5H,6H-pyrrolo[3,4-c]pyrazol-5-yl}-3-hydroxy-2-phenylpropan-1-one]",1980,152
"O=C(N1Cc2cn(S(=O)(=O)c3ccc4ncsc4c3)nc2C1)[C@]1(c2ccccn2)CCOC1 (single isomer, unassigned) [Compound 19, 6-({5-[(3S)-3-(pyridin-2-yl)oxolane-3-carbonyl]-2H,4H,5H,6H-pyrrolo[3,4-c]pyrazol-2-yl}sulfonyl)-1,3-benzothiazole or 6-({5-[(3R)-3-(pyridin-2-yl)oxolane-3-carbonyl]-2H,4H,5H,6H-pyrrolo[3,4-c]pyrazol-2-yl}sulfonyl)-1,3-benzothiazole]",699,59
"Cc1cccc([C@@]2(C(=O)N3Cc4cn(S(=O)(=O)c5ccc6ncsc6c5)nc4C3)CCOC2)n1 (single isomer, unassigned) [Compound 36, 6-({5-[(3S)-3-(6-methylpyridin-2-yl)oxolane-3-carbonyl]-2H,4H,5H,6H-pyrrolo[3,4-c]pyrazol-2-yl}sulfonyl)-1,3-benzothiazole or 6-({5-[(3R)-3-(6-methylpyridin-2-yl)oxolane-3-carbonyl]-2H,4H,5H,6H-pyrrolo[3,4-c]pyrazol-2-yl}sulfonyl)-1,3-benzothiazole]",591,38
"O=C(N1Cc2cn(S(=O)(=O)c3ccc4c(c3)NCCO4)nc2C1)[C@]1(c2ccccn2)CCOC1 (single isomer, unassigned) [Compound 45, 6-({5-[(3S)-3-(pyridin-2-yl)oxolane-3-carbonyl]-2H,4H,5H,6H-pyrrolo[3,4-c]pyrazol-2-yl}sulfonyl)-3,4-dihydro-2H-1,4-benzoxazine or 6-({5-[(3R)-3-(pyridin-2-yl)oxolane-3-carbonyl]-2H,4H,5H,6H-pyrrolo[3,4-c]pyrazol-2-yl}sulfonyl)-3,4-dihydro-2H-1,4-benzoxazine]",15,94
"O=C(N1Cc2cn(S(=O)(=O)c3ccc4c(c3)NCCO4)nc2C1)[C@]1(c2ccccn2)CCOC1 (single isomer, unassigned) [Compound 46, 6-({5-[(3S)-3-(pyridin-2-yl)oxolane-3-carbonyl]-2H,4H,5H,6H-pyrrolo[3,4-c]pyrazol-2-yl}sulfonyl)-3,4-dihydro-2H-1,4-benzoxazine or 6-({5-[(3R)-3-(pyridin-2-yl)oxolane-3-carbonyl]-2H,4H,5H,6H-pyrrolo[3,4-c]pyrazol-2-yl}sulfonyl)-3,4-dihydro-2H-1,4-benzoxazine]",129,45
"C[C@@](CO)(C(=O)N1Cc2cn(S(=O)(=O)c3ccc4c(c3)OCCO4)nc2C1)c1ccccn1 (single isomer, unassigned) [Compound 48, (2R)-1-[2-(2,3-dihydro-1,4-benzodioxine-6-sulfonyl)-2H,4H,5H,6H-pyrrolo[3,4-c]pyrazol-5-yl]-3-hydroxy-2-methyl-2-(pyridin-2-yl)propan-1-one or (2S)-1-[2-(2,3-dihydro-1,4-benzodioxine-6-sulfonyl)-2H,4H,5H,6H-pyrrolo[3,4-c]pyrazol-5-yl]-3-hydroxy-2-methyl-2-(pyridin-2-yl)propan-1-one]",223,46
"O=C(N1Cc2cn(S(=O)(=O)c3ccc4ncsc4c3)nc2C1)C1(c2ccccc2)CCCN1 (single isomer, unassigned) [Compound 54, 6-({5-[(2S)-2-phenylpyrrolidine-2-carbonyl]-2H,4H,5H,6H-pyrrolo[3,4-c]pyrazol-2-yl}sulfonyl)-1,3-benzothiazole or 6-({2-[(2R)-2-phenylpyrrolidine-2-carbonyl]-2H,4H,5H,6H-pyrrolo[3,4-c]pyrazol-2-yl}sulfonyl)-1,3-benzothiazole]",4000,–

# More lines, now with the values ahead:
AC50 [nM],PKR % activation [%],Compound
39,–,"O=C(C(CO)c1ccncc1)N1Cc2cn(S(=O)(=O)c3ccc4ncsc4c3)nc2C1 (racemic) [Compound 27, 1-[2-(1,3-benzothiazole-6-sulfonyl)-2H,4H,5H,6H-pyrrolo[3,4-c]pyrazol-5-yl]-3-hydroxy-2-(pyridin-4-yl)propan-1-one]"
556,127,"O=C([C@H](CO)c1ccccc1)N1Cc2cn(S(=O)(=O)c3ccc4ncsc4c3)nc2C1 (single isomer, unassigned) [Compound 2, (2S)-1-[2-(1,3-benzothiazole-6-sulfonyl)-2H,4H,5H,6H-pyrrolo[3,4-c]pyrazol-5-yl]-3-hydroxy-2-phenylpropan-1-one or (2R)-1-[2-(1,3-benzothiazole-6-sulfonyl)-2H,4H,5H,6H-pyrrolo[3,4-c]pyrazol-5-yl]-3-hydroxy-2-phenylpropan-1-one]"
173,–,"Cc1ccc(C2(C(=O)N3Cc4cn(S(=O)(=O)c5ccc6ncsc6c5)nc4C3)CCOC2)cn1 (single isomer, unassigned) [Compound 31, 6-({5-[(3S)-3-(6-methylpyridin-3-yl)oxolane-3-carbonyl]-2H,4H,5H,6H-pyrrolo[3,4-c]pyrazol-2-yl}sulfonyl)-1,3-benzothiazole or 6-({5-[(3R)-3-(6-methylpyridin-3-yl)oxolane-3-carbonyl]-2H,4H,5H,6H-pyrrolo[3,4-c]pyrazol-2-yl}sulfonyl)-1,3-benzothiazole]"
75,–,"CC(CO)(C(=O)N1Cc2cn(S(=O)(=O)c3ccc4ncsc4c3)nc2C1)c1ccccn1 (single isomer, unassigned) [Compound 43, (2R)-1-[2-(1,3-benzothiazole-6-sulfonyl)-2H,4H,5H,6H-pyrrolo[3,4-c]pyrazol-5-yl]-3-hydroxy-2-methyl-2-(pyridin-2-yl)propan-1-one or (2S)-1-[2-(1,3-benzothiazole-6-sulfonyl)-2H,4H,5H,6H-pyrrolo[3,4-c]pyrazol-5-yl]-3-hydroxy-2-methyl-2-(pyridin-2-yl)propan-1-one]"
550,86,"C[C@@](CO)(C(=O)N1Cc2cn(S(=O)(=O)c3ccc4ncsc4c3)nc2C1)c1ccccn1 (single isomer, unassigned) [Compound 44, (2R)-1-[2-(1,3-benzothiazole-6-sulfonyl)-2H,4H,5H,6H-pyrrolo[3,4-c]pyrazol-5-yl]-3-hydroxy-2-methyl-2-(pyridin-2-yl)propan-1-one or (2S)-1-[2-(1,3-benzothiazole-6-sulfonyl)-2H,4H,5H,6H-pyrrolo[3,4-c]pyrazol-5-yl]-3-hydroxy-2-methyl-2-(pyridin-2-yl)propan-1-one]"
64,40,"Cc1ncccc1[C@@H](N)C(=O)N1Cc2cn(S(=O)(=O)c3ccc4ncsc4c3)nc2C1 (single isomer, unassigned) [Compound 47, (2R)-2-amino-1-[2-(1,3-benzothiazole-6-sulfonyl)-2H,4H,5H,6H-pyrrolo[3,4-c]pyrazol-5-yl]-2-(2-methylpyridin-3-yl)ethan-1-one or (2S)-2-amino-1-[2-(1,3-benzothiazole-6-sulfonyl)-2H,4H,5H,6H-pyrrolo[3,4-c]pyrazol-5-yl]-2-(2-methylpyridin-3-yl)ethan-1-one]"
> 10000,0,"Cc1ncccc1[C@@H](N)C(=O)N1Cc2cn(S(=O)(=O)c3ccc4ncsc4c3)nc2C1 (single isomer, unassigned) [Compound 55, (2R)-2-amino-1-[2-(1,3-benzothiazole-6-sulfonyl)-2H,4H,5H,6H-pyrrolo[3,4-c]pyrazol-5-yl]-2-(2-methylpyridin-3-yl)ethan-1-one or (2S)-2-amino-1-[2-(1,3-benzothiazole-6-sulfonyl)-2H,4H,5H,6H-pyrrolo[3,4-c]pyrazol-5-yl]-2-(2-methylpyridin-3-yl)ethan-1-one]"
